Measurements reported in patent US11873317B2, “Galectin-3 inhibiting c-glycosides” (GLYCOMIMETICS, INC., priority 2018, dated 2024).

Molecular target: T1, galectin-3 (Homo sapiens, UniProt P17931)
T1 construct: purchased IBL IBATGP0414
Assay: Galectin-3 Activity ELISA assay: inhibition of binding of galectin-3 to a Galβ1-3GlcNAc carbohydrate structure
Settings: galectin-3 binding to immobilized Galβ1-3GlcNAc polymer, A450 readout, read-out: IC50 Galectin-3 Antagonist Activity
Protocol: Galectin-3 antagonists were evaluated for their ability to inhibit binding of galectin-3 to a Galβ1-3GlcNAc carbohydrate structure. The detailed protocol was as follows. A 1 ug/mL suspension of a Galβ1-3GlcNAcβ1-3Galβ1-4GcNAcβ-PAA-biotin polymer (Glycotech, catalog number 01-096) was prepared. A 100 uL aliquot of the polymer was added to the wells of a 96-well streptavidin-coated plate (R&D Systems, catalog number CP004). A 100 uL aliquot of IX Tris Buffered Saline (TBS, Sigma, catalog number T5912-10×) was added to control wells. The polymer was allowed to bind to the streptavidin-coated wells for 1.5 hours at room temperature. The contents of the wells were discarded and 200 uL of 1×TBS containing 1% bovine serum albumin (BSA) was added to each well as a blocking reagent and the plate was kept at room temperature for 30 minutes. The wells were washed three times with IX TBS containing 0.1% BSA. A serial dilution of test compounds was prepared in a separate V-bottom plate (Corning, catalog number 3897). A 75 uL aliquot of the highest concentration of the compound to be tested was added to the first well in a column of the V-bottom plate then 15 ul were serially transferred into 60 uL IX TBS through the remaining wells in the column to generate a 1 to 5 serial dilution. A 60 uL aliquot of 2 ug/mL galectin-3 (IBL, catalog number IBATGP0414) was added to each well in the V-bottom plate. A 100 uL aliquot of the galectin-3/test compound mixture was transferred from the V-bottom plate into the assay plate containing the Galβ1-3GlcNAc polymer. Four sets of control wells in the assay plate were prepared in duplicate containing 1) both Galβ1-3GlcNAc polymer and galectin-3, 2) neither the polymer nor galectin-3, 3) galectin-3 only, no polymer, or 4) polymer only, no galectin-3. The plate was gently rocked for 1.5 hours at room temperature. The wells were washed four times with TBS/0.1% BSA. A 100 uL aliquot of anti-galectin-3 antibody conjugated to horse radish peroxidase (R&D Systems, from DGAL30 kit) was added to each well and the plate was kept at room temperature for 1 hour. The wells were washed four times with TBS/0.1% BSA. A 100 uL aliquot of TMB substrate solution was added to each well. The TMB substrate solution was prepared by making a 1:1 mixture of TMB Peroxidase Substrate (KPL, catalog number 5120-0048) and Peroxidase Substrate Solution B (KPL, catalog number 5120-0037). The plate was kept at room temperature for 10 to 20 minutes. The color development was stopped by adding 100 uL 10% phosphoric acid (RICCA Chemical Co., catalog number 5850-16). The absorbance at 450 nm (A450) was measured using a FlexStation 3 plate reader (Molecular Devices). Plots of A450 versus test compound concentration and IC50 determinations were made using GraphPad Prism 6.

T1 sequence (P17931 whole entry): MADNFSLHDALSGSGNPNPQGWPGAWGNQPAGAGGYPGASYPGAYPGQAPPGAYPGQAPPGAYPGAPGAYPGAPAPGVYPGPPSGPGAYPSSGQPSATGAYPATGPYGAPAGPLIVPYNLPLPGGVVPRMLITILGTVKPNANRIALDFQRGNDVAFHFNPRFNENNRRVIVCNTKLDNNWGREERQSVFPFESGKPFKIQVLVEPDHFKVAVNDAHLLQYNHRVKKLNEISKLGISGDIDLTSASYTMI

SMILES | IC50
COC(=O)[C@@H](OCc1ccccc1)[C@@H]1OC(CO)[C@H](O)C(n2cc(-c3cc(F)c(F)c(F)c3)nn2)C1O (stereo partly shown) [Compound 13] | 3480 nM
CNC(=O)[C@@H](OCc1ccc2ccccc2c1)[C@@H]1OC(CO)[C@H](O)C(n2cc(-c3cc(F)c(F)c(F)c3)nn2)C1O (stereo partly shown) [Compound 16] | 530 nM
CNC(=O)[C@@H](OCc1cccc(-c2ccccc2)c1)[C@@H]1OC(CO)[C@H](O)C(n2cc(-c3cc(F)c(F)c(F)c3)nn2)C1O (stereo partly shown) [Compound 17] | 2560 nM
CNC(=O)[C@@H](OCc1cccc(C(=O)OC)c1)[C@@H]1OC(CO)[C@H](O)C(n2cc(-c3cc(F)c(F)c(F)c3)nn2)C1O (stereo partly shown) [Compound 18] | 670 nM
CNC(=O)[C@@H](OCc1ccc(Cl)cc1)[C@@H]1OC(CO)[C@H](O)C(n2cc(-c3cc(F)c(F)c(F)c3)nn2)C1O (stereo partly shown) [Compound 19] | 320 nM
CNC(=O)[C@@H](OCc1cccc(Cl)c1)[C@@H]1OC(CO)[C@H](O)C(n2cc(-c3cc(F)c(F)c(F)c3)nn2)C1O (stereo partly shown) [Compound 20] | 1520 nM
CNC(=O)[C@@H](OCc1cccc(OC(F)(F)F)c1)[C@@H]1OC(CO)[C@H](O)C(n2cc(-c3cc(F)c(F)c(F)c3)nn2)C1O (stereo partly shown) [Compound 21] | 1940 nM
CNC(=O)[C@@H](OCc1ccc(F)cc1)[C@@H]1OC(CO)[C@H](O)C(n2cc(-c3cc(F)c(F)c(F)c3)nn2)C1O (stereo partly shown) [Compound 24] | 1720 nM
CNC(=O)[C@@H](OCc1ccc(F)c(F)c1)[C@@H]1OC(CO)[C@H](O)C(n2cc(-c3cc(F)c(F)c(F)c3)nn2)C1O (stereo partly shown) [Compound 25] | 1080 nM
CNC(=O)[C@@H](OCc1ccc(C(F)(F)F)cc1)[C@@H]1OC(CO)[C@H](O)C(n2cc(-c3cc(F)c(F)c(F)c3)nn2)C1O (stereo partly shown) [Compound 26] | 350 nM
CNC(=O)[C@@H](OCc1ccc(F)c(Cl)c1)[C@@H]1OC(CO)[C@H](O)C(n2cc(-c3cc(F)c(F)c(F)c3)nn2)C1O (stereo partly shown) [Compound 27] | 2090 nM
CNC(=O)[C@@H](OCc1ccc(S(C)(=O)=O)cc1)[C@@H]1OC(CO)[C@H](O)C(n2cc(-c3cc(F)c(F)c(F)c3)nn2)C1O (stereo partly shown) [Compound 28] | 690 nM
CNC(=O)[C@@H](OCc1ccc(C(=O)OC)cc1)[C@@H]1OC(CO)[C@H](O)C(n2cc(-c3cc(F)c(F)c(F)c3)nn2)C1O (stereo partly shown) [Compound 29] | 4600 nM
CNC(=O)[C@@H](OCc1ccc(OC(F)(F)F)cc1)[C@@H]1OC(CO)[C@H](O)C(n2cc(-c3cc(F)c(F)c(F)c3)nn2)C1O (stereo partly shown) [Compound 30] | 4980 nM
CNC(=O)[C@@H](OCc1ccc(Cl)c(F)c1)[C@@H]1OC(CO)[C@H](O)C(n2cc(-c3cc(F)c(F)c(F)c3)nn2)C1O (stereo partly shown) [Compound 31] | 180 nM
CNC(=O)[C@@H](OCc1ccc(OC)cc1)[C@@H]1OC(CO)[C@H](O)C(n2cc(-c3cc(F)c(F)c(F)c3)nn2)C1O (stereo partly shown) [Compound 32] | 2810 nM
CNC(=O)[C@@H](OCc1ccc(C2CC2)cc1)[C@@H]1OC(CO)[C@H](O)C(n2cc(-c3cc(F)c(F)c(F)c3)nn2)C1O (stereo partly shown) [Compound 33] | 1640 nM
CNC(=O)[C@@H](OCc1cccnc1)[C@@H]1OC(CO)[C@H](O)C(n2cc(-c3cc(F)c(F)c(F)c3)nn2)C1O (stereo partly shown) [Compound 34] | 850 nM
CCCCNC(=O)[C@@H](OCc1ccccc1)[C@@H]1OC(CO)[C@H](O)C(n2cc(-c3cc(F)c(F)c(F)c3)nn2)C1O (stereo partly shown) [Compound 35] | > 100000 nM
CNC(=O)[C@@H](OCc1ccccc1)[C@@H]1OC(CO)[C@H](O)C(n2cc(-c3cc(F)c(F)c(F)c3)nn2)C1O (stereo partly shown) [Compound 36] | 3860 nM
CNC(=O)[C@@H](OCc1ccccc1)[C@@H]1OC(CO)[C@H](O)[C@H](n2cc(-c3cc(F)c(F)c(F)c3)nn2)C1OC (stereo partly shown) [Compound 40] | 2610 nM
COC1[C@H]([C@H](OCc2ccccc2)C(=O)N(C)C)OC(CO)[C@H](O)[C@@H]1n1cc(-c2cc(F)c(F)c(F)c2)nn1 (stereo partly shown) [Compound 41] | 9580 nM
COC1C(n2cc(-c3cc(F)c(F)c(F)c3)nn2)[C@@H](O)C(CO)O[C@H]1[C@H](OCc1ccc(Cl)cc1)C(=O)N(C)C (stereo partly shown) [Compound 42] | 2060 nM
COC1C(n2cc(-c3cc(F)c(F)c(F)c3)nn2)[C@@H](O)C(CO)O[C@H]1[C@H](OCc1ccc(Cl)cc1)C(=O)Nc1ccccc1F (stereo partly shown) [Compound 69] | 230 nM
COC1C(n2cc(-c3cc(F)c(F)c(F)c3)nn2)[C@@H](O)C(CO)O[C@H]1[C@H](OCc1ccc(Cl)cc1)C(=O)NCC(F)(F)F (stereo partly shown) [Compound 70] | 720 nM
